Measurements taken from ChEMBL document CHEMBL5136995, “Structure-based optimization of hydroxylactam as potent, cell-active inhibitors of lactate dehydrogenase” (Bioorg Med Chem Lett, 2022).
pIC50: −log10 of the molar value.

Tests used:
[1] = biological target: L-lactate dehydrogenase A chain (Homo sapiens, UniProt P00338); test: Inhibition of LDHA (unknown origin)
[2] = AUC in mouse at 100 mg/kg, po; type: ADME, organism-based; set-up: dose 100 mg/kg, route po; conditions: in vivo
[3] = Clearance in mouse at 1 mg/kg, iv; type: ADME, organism-based; conditions: in vivo
[4] = Lipophilicity, logD of compound; type: physicochemical; conditions: octanol/water
[5] = Inhibition of lactate production in human MIA PaCa-2 cells; type: functional, cell-based
[6] = Plasma protein binding in mouse; type: ADME, cell-free; conditions: read-out: PPB
[7] = Oral bioavailability in mouse at 5 mg/kg; type: ADME, organism-based; conditions: in vivo
[8] = AUC in mouse at 5 mg/kg, po; type: ADME, organism-based; set-up: dose 5 mg/kg, route po; conditions: in vivo
[9] = Cmax in mouse at 100 mg/kg, po; type: ADME, organism-based; set-up: dose 100 mg/kg, route po; conditions: in vivo
[10] = Volume of distribution at steady state in mouse at 1 mg/kg, iv; type: ADME, organism-based; conditions: in vivo, read-out: Vdss
[11] = Cmax in mouse at 5 mg/kg, po; type: ADME, organism-based; set-up: dose 5 mg/kg, route po; conditions: in vivo
[12] = Toxicity in mouse xenografted with human MIA PaCa-2 cells assessed as effect on body weight at 200 to 400 mg/kg administered twice a day for 28 days; type: organism-based; conditions: in vivo, 672 h, dose 200-400 mg/kg, time 28 day
[13] = AUC in mouse at 1 mg/kg, iv; type: ADME, organism-based; set-up: dose 1 mg/kg, route iv; conditions: in vivo
[14] = Cmax in mouse at 50 mg/kg, po; type: ADME, organism-based; set-up: dose 50 mg/kg, route po; conditions: in vivo
[15] = AUC in mouse at 50 mg/kg, po; type: ADME, organism-based; set-up: dose 50 mg/kg, route po; conditions: in vivo
[16] = Half-life in mouse at 1 mg/kg, iv; type: ADME, organism-based; conditions: in vivo
[17] = Cmax in mouse at 1 mg/kg, iv; type: ADME, organism-based; set-up: dose 1 mg/kg, route iv; conditions: in vivo
[18] = Apparent permeability across apical to basolateral side in MDCK cells at 100 uM by HPLC analysis; type: ADME, cell-based, Canis lupus familiaris; conditions: dog
[19] = Cmax in mouse at 200 mg/kg, po; type: ADME, organism-based; set-up: dose 200 mg/kg, route po; conditions: in vivo
[20] = AUC in mouse at 200 mg/kg, po; type: ADME, organism-based; set-up: dose 200 mg/kg, route po; conditions: in vivo
[21] = biological target: L-lactate dehydrogenase B chain (Homo sapiens, UniProt P07195); test: Inhibition of LDHB (unknown origin)
Sequence of L-lactate dehydrogenase B chain (P07195 whole entry): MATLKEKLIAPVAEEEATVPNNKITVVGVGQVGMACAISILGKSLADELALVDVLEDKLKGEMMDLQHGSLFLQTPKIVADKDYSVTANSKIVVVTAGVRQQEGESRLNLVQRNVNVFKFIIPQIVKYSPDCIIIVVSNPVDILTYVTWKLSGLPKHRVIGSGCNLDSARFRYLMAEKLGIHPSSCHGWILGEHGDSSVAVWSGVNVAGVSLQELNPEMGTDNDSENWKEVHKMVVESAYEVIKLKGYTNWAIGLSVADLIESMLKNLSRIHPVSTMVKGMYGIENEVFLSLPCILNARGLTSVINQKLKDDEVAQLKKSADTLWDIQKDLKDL

| SMILES | pIC50 [1] | further results |
| --- | --- | --- |
| O=C1OC(c2cccs2)(c2cccs2)CC(O)=C1Sc1ccccc1Cl | 7.05 |  |
| O=C1OC(c2ccccn2)(c2ccccn2)CC(O)=C1Sc1ccccc1Cl | 5.92 | pIC50 [21]: 5.54 |
| O=C1OC(c2ccccc2)(c2ccccc2)CC(O)=C1Sc1ccccc1Cl | 6.00 | pIC50 [21]: 5.51 |
| O=C1OC(c2ccccc2)(c2ccccn2)CC(O)=C1Sc1ccccc1Cl (stereo in doubt; 2) | 6.04 |  |
| O=C1OC(c2ccccc2)(c2ccccn2)CC(O)=C1Sc1ccccc1Cl (stereo in doubt; 3) | 5.62 |  |
| O=C1OC(c2ccccc2)(c2ccsc2)CC(O)=C1Sc1ccccc1Cl (stereo in doubt; 5) | 7.05 |  |
| O=C1OC(c2ccccc2)(c2ccsc2)CC(O)=C1Sc1ccccc1Cl (stereo in doubt; 6) | 6.37 |  |
| O=C1OC(c2ccccc2)(c2cccs2)CC(O)=C1Sc1ccccc1Cl (stereo in doubt; 7) | 6.92 | pIC50 [21]: 5.89 |
| O=C1OC(c2ccccc2)(c2cccs2)CC(O)=C1Sc1ccccc1Cl (stereo in doubt; 8) | 6.66 | pIC50 [21]: 5.82 |
| O=C1OC(c2ccccc2)(c2cscn2)CC(O)=C1Sc1ccccc1Cl (stereo in doubt; 9) | 6.74 | pIC50 [21]: 6.26 |
| O=C1OC(c2ccccc2)(c2cscn2)CC(O)=C1Sc1ccccc1Cl (stereo in doubt; 10) | 5.96 | pIC50 [21]: 5.55 |
| O=C1OC(c2ccsc2)(c2ccccn2)CC(O)=C1Sc1ccccc1Cl (stereo in doubt; 11) | 6.89 | pIC50 [21]: 6.27 |
| O=C1OC(c2ccsc2)(c2ccccn2)CC(O)=C1Sc1ccccc1Cl (stereo in doubt; 12) | 6.01 | pIC50 [21]: 5.49 |
| O=C1OC(c2ccccc2)(c2ccccc2O)CC(O)=C1Sc1ccccc1Cl (stereo in doubt; 15) | 6.37 | pIC50 [21]: 6.02 |
| O=C1OC(c2ccsc2)(c2ccccc2F)CC(O)=C1Sc1ccccc1Cl (stereo in doubt; 18) | 6.66 |  |
| O=C1OC(c2ccsc2)(c2ccccc2F)CC(O)=C1Sc1ccccc1Cl (stereo in doubt; 19) | 6.35 |  |
| Nc1cccc(C2(c3ccsc3)CC(O)=C(Sc3ccccc3Cl)C(=O)O2)c1 (stereo in doubt; 21) | 6.72 |  |
| Nc1cccc(C2(c3ccccc3)CC(O)=C(Sc3ccccc3Cl)C(=O)O2)c1 (stereo in doubt; 22) | 6.89 | pIC50 [21]: 6.60 |
| Nc1cccc(C2(c3ccccc3)CC(O)=C(Sc3ccccc3Cl)C(=O)O2)c1 (stereo in doubt; 23) | 6.35 | pIC50 [21]: 5.42 |
| O=C1NC(c2cccc(NCCC3CC3)n2)(c2cccc(Nc3ccc(F)c(F)c3)n2)CC(O)=C1Sc1ccccc1Cl (stereo in doubt; 41) | 6.72 |  |
| O=C1NC(c2cccc(NCc3ccc(F)cc3)n2)(c2cccc(Nc3ccc(F)c(F)c3)n2)CC(O)=C1Sc1ccccc1Cl (stereo in doubt; 43) | 6.80 |  |

The next compounds have a higher pIC50 [1] than those just listed; values first:

| pIC50 [1] | SMILES | further results |
| --- | --- | --- |
| 7.12 | O=C1NC(c2ccsc2)(c2cccc(Nc3ccc(F)c(F)c3)n2)CC(O)=C1Sc1ccccc1Cl (stereo in doubt; 39) |  |
| 7.17 | O=C1NC(c2cccc(Nc3ccc(F)c(F)c3)n2)(c2cccc(Oc3cccc4ncccc34)n2)CC(O)=C1Sc1ccccc1Cl (stereo in doubt; 47) | pIC50 [21]: 6.19 |
| 7.18 | O=C1OC(c2ccsc2)(c2cccc(NCC(F)(F)F)c2)CC(O)=C1Sc1ccccc1Cl (racemic) |  |
| 7.20 | O=C1OC(c2ccsc2)(c2cccc(Nc3ccc(F)cn3)c2)CC(O)=C1Sc1ccccc1Cl (stereo in doubt; 29) |  |
| 7.26 | O=C1NC(c2cccc(Nc3ccc(F)c(F)c3)n2)(c2cccc(NC3CCOCC3)n2)CC(O)=C1Sc1ccccc1Cl (stereo in doubt; 37) |  |
| 7.37 | CC(=O)Nc1cccc(C2(c3ccsc3)CC(O)=C(Sc3ccccc3Cl)C(=O)O2)c1 (racemic) |  |
| 7.43 | O=C1NC(c2ccc(N3CCOCC3)cc2)(c2cccc(Oc3ccc(F)cc3)n2)CC(O)=C1Sc1ccccc1Cl (stereo in doubt; 51) |  |
| 7.44 | O=C1O[C@](c2ccsc2)(c2cccc(Nc3ccc(F)cc3)c2)CC(O)=C1Sc1ccccc1Cl |  |
| 7.59 | O=C1OC(c2ccccc2)(c2ccccc2O)CC(O)=C1Sc1ccccc1Cl (stereo in doubt; 14) | pIC50 [21]: 7.12 |
| 7.66 | O=C1OC(c2ccsc2)(c2ccccc2O)CC(O)=C1Sc1ccccc1Cl (stereo in doubt; 17) |  |
| 7.89 | Nc1cccc(C2(c3ccsc3)CC(O)=C(Sc3ccccc3Cl)C(=O)O2)c1 (stereo in doubt; 20) |  |
| 7.89 | O=C1NC(c2cccc(NCCC3CC3)n2)(c2cccc(Nc3ccc(F)c(F)c3)n2)CC(O)=C1Sc1ccccc1Cl (stereo in doubt; 40) |  |
| 7.96 | O=C1NC(c2ccc(N3CCOCC3)cc2)(c2cccc(Nc3ccc(F)cc3)n2)CC(O)=C1Sc1ccccc1Cl (stereo in doubt; 49) |  |
| 8.00 | O=C1NC(c2ccsc2)(c2cccc(Nc3ccc(F)c(F)c3)n2)CC(O)=C1Sc1ccccc1Cl (stereo in doubt; 38) | logD [4]: 1.1; pIC50 [5]: 5.04 |
| 8.07 | O=C1NC(c2cccc(NCc3ccc(F)cc3)n2)(c2cccc(Nc3ccc(F)c(F)c3)n2)CC(O)=C1Sc1ccccc1Cl (stereo in doubt; 42) | logD [4]: 2.5 |
| 8.16 | O=C1OC(c2ccsc2)(c2cccc(Nc3ccc(F)cc3)n2)CC(O)=C1Sc1ccccc1Cl (stereo in doubt; 31) |  |
| 8.36 | O=C1NC(c2cccc(Nc3ccc(F)c(F)c3)n2)(c2cccc(NC3CCCCC3)n2)CC(O)=C1Sc1ccccc1Cl (stereo in doubt; 35) |  |
| 8.40 | O=C1O[C@@](c2ccsc2)(c2cccc(Nc3ccc(F)cc3)c2)CC(O)=C1Sc1ccccc1Cl |  |
| 8.42 | O=C1NC(c2cccc(Nc3ccc(F)c(F)c3)n2)(c2cccc(Oc3cccc4ncccc34)n2)CC(O)=C1Sc1ccccc1Cl (stereo in doubt; 46) | logD [4]: 2.2; pIC50 [5]: 5.44; pIC50 [21]: 7.60 |
| 8.43 | O=C1N[C@@](c2cccc(Nc3ccc(F)cc3)n2)(c2cccc(Nc3ccc(F)c(F)c3)n2)CC(O)=C1Sc1ccccc1Cl |  |
| 8.49 | O=C1NC(c2cccc(Nc3ccc(F)c(F)c3)n2)(c2cccc(Oc3ccccc3)n2)CC(O)=C1Sc1ccccc1Cl (stereo in doubt; 45) |  |
| 8.54 | O=C1OC(c2ccsc2)(c2cccc(Nc3ccc(F)cn3)c2)CC(O)=C1Sc1ccccc1Cl (stereo in doubt; 28) |  |
| 8.54 | O=C1OC(c2ccsc2)(c2cccc(Nc3ccc(F)cc3)n2)CC(O)=C1Sc1ccccc1Cl (stereo in doubt; 30) |  |
| 8.57 | O=C1NC(c2cccc(Nc3ccc(F)c(F)c3)n2)(c2cccc(NC3CCOCC3)n2)CC(O)=C1Sc1ccccc1Cl (stereo in doubt; 36) | logD [4]: 2.4; pIC50 [5]: 5.14 |
| 8.60 | O=C1NC(c2cccc(Nc3ccc(F)c(F)c3)n2)(c2cccc(Oc3ccccc3)n2)CC(O)=C1Sc1ccccc1Cl (stereo in doubt; 44) | logD [4]: 2.6; pIC50 [5]: 5.28 |
| 8.60 | O=C1NC(c2ccc(N3CCOCC3)cc2)(c2cccc(Nc3ccc(F)cc3)n2)CC(O)=C1Sc1ccccc1Cl (stereo in doubt; 48) | logD [4]: 2 |
| 8.66 | O=C1OC(c2ccsc2)(c2ccccc2O)CC(O)=C1Sc1ccccc1Cl (stereo in doubt; 16) |  |
| 8.74 | O=C1NC(c2ccc(N3CCOCC3)cc2)(c2cccc(Oc3ccc(F)cc3)n2)CC(O)=C1Sc1ccccc1Cl (stereo in doubt; 50) | logD [4]: 1.9; pIC50 [5]: 5.77; fraction unbound [6]: 0.001; Papp A→B at 100 µM [18]: 2.2 ×10⁻⁶ cm/s |
| 8.80 | O=C1N[C@](c2cccc(Nc3ccc(F)cc3)n2)(c2cccc(Nc3ccc(F)c(F)c3)n2)CC(O)=C1Sc1ccccc1Cl | AUC [2]: 235 µM·h; clearance [3]: 4.89 mL/min/kg; logD [4]: 2.2; pIC50 [5]: 5.70; fraction unbound [6]: 0.001; bioavailability [7]: 59.5%; AUC [8]: 19.4 µM·h; Cmax [9]: 66.9 µM; Vd [10]: 0.671 L/kg; Cmax [11]: 5.95 µM; Activity [12]: Non-Toxic; AUC [13]: 6.5 µM·h; Cmax [14]: 23.3 µM; AUC [15]: 71.2 µM·h; half-life [16]: 2.81 h; Cmax [17]: 7.36 µM; Papp A→B at 100 µM [18]: 4.6 ×10⁻⁶ cm/s; Cmax [19]: 117 µM; AUC [20]: 411 µM·h |
| 9.05 | O=C1NC(c2cccc(Nc3ccc(F)c(F)c3)n2)(c2cccc(NC3CCCCC3)n2)CC(O)=C1Sc1ccccc1Cl (stereo in doubt; 34) | logD [4]: 2.6; pIC50 [5]: 5.66 |
